This note sets out measurements from patent US9370589B2, “Switching fluorescent nanoparticle probe and fluorescent particle imaging method using same” (SHIMADZU CORPORATION, priority 2010, dated 2016).

The structures appear in SMILES notation.

The nature of data set [1]: Dependence of fluorescence intensity of fluorescent dye-encapsulating lactosome on fluorescent dye content. It counts as physicochemical. Particulars: for intensity of fluorescence by adding SDS, BSA, or plasma: lactosome with varied dye content; for fluorescent dye content at which the intensity of fluorescence in PBS was maximized: polymer 1/15 mg/mL. The method, then:
Lactosomes encapsulating, as a fluorescent dye, IC7-1, IC7-2, IR820, IR783, or IR806 were prepared by changing the fluorescent dye content (1 mg/mL), and were then mixed with PBS, 5 wt % SDS, 5 wt % BSA, or plasma 1:1 (volume ratio), and the mixture was allowed to stand at room temperature for 30 minutes under lightproof conditions, and then diluted with PBS so that the concentration of the amphiphilic polymer was 1/15 mg/mL to measure the intensity of fluorescence using Fluorolog-3 (HORIBA Jobin Yvon Inc.) (FIG. 6).

Data set [2] in a line: Absorption and fluorescence spectra of fluorescent dye-encapsulating lactosomes in ultrapure water. It is filed as physicochemical. The following applies: polymer 1 mg/mL; for absorption maximum / Fluorescence maximum: lactosome encapsulating 1 mol % of dye. Here is the method:
Among the lactosomes encapsulating the fluorescent dye IC7-1 (IC7-1/Lactosomes) obtained in Example 1-1, the freeze-dried products of the lactosomes each encapsulating 1 mol %, 5 mol %, 10 mol % and 20 mol % of the fluorescent dye were subjected to measurement of absorption spectra and fluorescence spectra in the following manner.
The measurement of absorption spectra was performed to confirm that each of these lactosomes encapsulated the fluorescent dye according to their respective fluorescent dye blend ratios. Further, the measurement of fluorescence intensity of the fluorescent dye-encapsulating lactosomes was performed. The measurement of absorption spectra was performed using an ultraviolet-visible spectrophotometer (UVmini-1240, manufactured by SHIMADZU CORPORATION). The measurement of fluorescence spectra was performed at an excitation wavelength of 785 nm in the range of 700 to 900 nm using a fluorescence spectrophotometer (RF-5300PC, manufactured by SHIMADZU CORPORATION).
Each of the fluorescent dye-encapsulating lactosomes was dispersed in ultrapure water so that the concentration of the amphiphilic polymer was 1 mg/mL to measure absorption and fluorescence spectra (FIG. 1). The lactosome encapsulating 1 mol % of IC7-1 had adsorption maximum at 831 nm and fluorescence maximum at 836 nm. Although the intensity of absorbance increased as the fluorescent dye content increased, the intensity of fluorescence was highest when the fluorescent dye content was 1 mol %, and was reduced to about 1/120 when the fluorescent dye content was 20 mol % as compared to when the fluorescent dye content was 1 mol % (FIGS. 1(a) and 1(b)). The lactosome encapsulating 1 mol % of IC7-2 had absorption maximum at 831 nm and fluorescence maximum at 833 nm. […] Also when IC7-2 was contained, quenching of fluorescence was observed. The intensity of fluorescence was reduced to about ⅛ when the IC7-2 content was 20 mol % as compared to when the IC7-2 content was 1 mol % (FIGS. 1(c) and 1(d)).
Among the lactosomes encapsulating the fluorescent dye IC7-1 (IC7-1/Lactosomes) obtained in Example 1-1, the lactosomes each encapsulating 0.5 mol % (for comparison), 1 mol %, 2 mol %, 4 mol %, 8 mol %. 12 mol %, 16 mol %, or 20 mol % of the fluorescent dye IC7-1 (IC7-1/Lactosomes) were dispersed in ultrapure water so that the concentration of the amphiphilic polymer was 1 mg/mL to measure the maximum value of fluorescence at an excitation wavelength of 785 nm (FIG. 2(a)).

In the next data set the target is albumin (BSA) (Bos taurus, UniProt P02769). The data set can be described thus: Fluorescence intensity before and after change in external environment (addition of 5 wt % BSA). The following applies: lactosome containing 20 mol % of dye (IC7-2: 15 mol %); for Ratio of fluorescence intensity (A/B): 5 wt % BSA versus PBS; for Fluorescence maximum: addition of 5 wt % BSA, polymer 1/15 mg/mL; for Fluorescence intensity (A): after addition of 5 wt % BSA; for Fluorescence intensity (PBS)(B): in PBS, at the BSA fluorescence maximum wavelength.

Data set [3] in a line: Fluorescence intensity before and after change in external environment (addition of 5 wt % SDS). Particulars: lactosome containing 20 mol % of dye (IC7-2: 15 mol %); for Ratio of fluorescence intensity (A/B): 5 wt % SDS versus PBS; for Fluorescence maximum: addition of 5 wt % SDS, polymer 1/15 mg/mL; for Fluorescence intensity (A): after addition of 5 wt % SDS; for Fluorescence intensity (PBS)(B): in PBS, at the SDS fluorescence maximum wavelength.
Source text: (§1) Requirements for recovery of fluorescence intensity under in vivo conditions were studied.
(§2) It is to be noted that specific composition of the phosphate buffered saline (PBS) is as follows: 29 g of Na2HPO4.12H2O, 2.96 g of NaH2PO4.2H2O, and 8.7 g of NaCl per 1 liter of ultrapure water.

Data set [4] can be described thus: Fluorescence intensity before and after change in external environment (addition of plasma). Particulars: for Fluorescence maximum: lactosome (PSar-PLLA) containing 20 mol % of dye (IC7-2: 15 mol %), addition of plasma, polymer 1/15 mg/mL; for Fluorescence intensity (A) / Fluorescence intensity (PBS)(B) / Ratio of fluorescence intensity (A/B): lactosome containing 20 mol % of dye (IC7-2: 15 mol %); for Fluorescence intensity (A): after addition of plasma; for Fluorescence intensity (PBS)(B): in PBS, at the plasma fluorescence maximum wavelength; for Ratio of fluorescence intensity (A/B): plasma versus PBS.
Procedure: Requirements for recovery of fluorescence intensity under in vivo conditions were studied. A water dispersion of the lactosome encapsulating 20 mol % of IC7-1 in a carrier agent PSar-PLLA (1 mg/mL) and phosphate buffered saline (PBS), plasma (collected from a male ddY), 5 wt % albumin (BSA), or 5 wt % SDS were mixed 1:1 (volume ratio), respectively, and the mixture was allowed to stand at room temperature for 30 minutes under lightproof conditions, and then diluted with PBS so that the concentration of the amphiphilic polymer was 1/15 mg/mL to measure a fluorescence spectrum (FIG. 3(a)).

albumin (BSA), sequence (P02769 25-607): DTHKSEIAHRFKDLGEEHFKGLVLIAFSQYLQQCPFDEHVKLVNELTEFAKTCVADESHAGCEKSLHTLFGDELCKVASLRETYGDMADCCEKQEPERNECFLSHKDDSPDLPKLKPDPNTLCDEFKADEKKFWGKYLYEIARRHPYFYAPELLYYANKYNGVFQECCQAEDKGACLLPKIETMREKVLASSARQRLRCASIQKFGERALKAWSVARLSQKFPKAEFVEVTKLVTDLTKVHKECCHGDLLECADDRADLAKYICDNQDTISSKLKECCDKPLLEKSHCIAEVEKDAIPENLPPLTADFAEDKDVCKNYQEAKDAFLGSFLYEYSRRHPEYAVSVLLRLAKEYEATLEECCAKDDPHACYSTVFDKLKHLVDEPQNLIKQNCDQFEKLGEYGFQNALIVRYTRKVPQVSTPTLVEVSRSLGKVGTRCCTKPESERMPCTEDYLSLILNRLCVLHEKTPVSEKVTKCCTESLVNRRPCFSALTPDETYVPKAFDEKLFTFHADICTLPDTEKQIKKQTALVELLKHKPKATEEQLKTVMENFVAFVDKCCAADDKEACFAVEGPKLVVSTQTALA
Source text for albumin (BSA): as §1, §2

Regarding `CC1(C)C(/C=C/C2=C(Cl)C(=C/C=C3\N(CCCCCC(=O)O)c4ccc5ccccc5c4C3(C)C)/CCC2)=[N+](CCO)c2ccc3ccccc3c21.[I-]` [IC7-1], the “intensity of fluorescence by adding SDS, BSA, or plasma” value in data set [1] was “increased with dependence on fluorescent dye content”. In addition, the “fluorescent dye content at which the intensity of fluorescence in PBS was maximized” value in data set [1] (lactosome) amounted to 1 mol %. For the same molecule, the “increase of encapsulated fluorescent dye amount by which fluorescence intensity per certain amount of dye is reduced to ½” value in data set [1] (lactosome, amphiphilic polymer concentration 1/15 mg/mL) amounted to 1.12 mol %. In addition, the absorption maximum in data set [2] was 831 nm. In data set [2] (excitation 785 nm), the Fluorescence maximum was 836 nm. The “intensity of fluorescence at 20 mol % dye content as compared to 1 mol % (reduced to)” value in data set [2] (lactosome) is recorded as “about 1/120”. The “fluorescent dye content at which the intensity of fluorescence was highest” value in data set [2] (lactosome, excitation 785 nm) is recorded as 1 mol %. Besides, in data set [2] (lactosome, until content reached 8 mol %), the “increase of fluorescent dye content by which fluorescence intensity per 1 μM dye is reduced to ½” value turned out to be 0.78 mol %. In addition, on albumin (BSA), the “Ratio of fluorescence intensity (A/B)” value worked out at 156.3, the Fluorescence maximum is reported as 837 nm, the “Fluorescence intensity (A)” value was 92384 and the “Fluorescence intensity (PBS)(B)” value stood at 591. In data set [3], the “Ratio of fluorescence intensity (A/B)” value turned out to be 204.5, the Fluorescence maximum was found to be 852 nm, the “Fluorescence intensity (A)” value came out at 141929 and the “Fluorescence intensity (PBS)(B)” value is on record as 694. In data set [4], the Fluorescence maximum came out at 844 nm, the “Fluorescence intensity (A)” value is on record as 199746, the “Fluorescence intensity (PBS)(B)” value is 696 and the “Ratio of fluorescence intensity (A/B)” value was found to be 287.0.
For `CC1(C)C(/C=C/C=C/C=C/C=C2\N(CCCCS(=O)(=O)O)c3ccc4ccccc4c3C2(C)C)=[N+](CCCCS(=O)(=O)[O-])c2ccc3ccccc3c21` [ICG, indocyanine green], at albumin (BSA), the “Ratio of fluorescence intensity (A/B)” value is reported as 33.4, the Fluorescence maximum was 802 nm, the “Fluorescence intensity (A)” value is given as 148650 and the “Fluorescence intensity (PBS)(B)” value came out at 4454. Moreover, in data set [3], the “Ratio of fluorescence intensity (A/B)” value came to 71.9, the Fluorescence maximum is given as 821 nm, the “Fluorescence intensity (A)” value is on record as 382900 and the “Fluorescence intensity (PBS)(B)” value is recorded as 5327. For the same molecule, in data set [4], the Fluorescence maximum stood at 824 nm, the “Fluorescence intensity (A)” value was determined as 342590, the “Fluorescence intensity (PBS)(B)” value stood at 5212 and the “Ratio of fluorescence intensity (A/B)” value was determined as 65.7.
`CC1(C)C(/C=C/C2=C(Cl)C(=C/C=C3/C=CN(CCO)c4ccccc43)/CCC2)=[N+](CCCCCC(=O)O)c2ccc3ccccc3c21.[I-]` [IC7-2]: the “intensity of fluorescence by adding SDS, BSA, or plasma” value in data set [1] is on record as “increased with dependence on fluorescent dye content”. In addition, in data set [1] (lactosome), the “fluorescent dye content at which the intensity of fluorescence in PBS was maximized” value is recorded as 2.5 mol %. This molecule yielded an absorption maximum in data set [2] of 831 nm. In data set [2] (excitation 785 nm), this molecule came in with a Fluorescence maximum of 833 nm. The “intensity of fluorescence at 20 mol % dye content as compared to 1 mol % (reduced to)” value in data set [2] (lactosome) was “about ⅛”. For the same molecule, at albumin (BSA), the “Ratio of fluorescence intensity (A/B)” value came to 13.1, the Fluorescence maximum is reported as 903 nm, the “Fluorescence intensity (A)” value amounted to 185345 and the “Fluorescence intensity (PBS)(B)” value is recorded as 14147. Further, in data set [3], the “Ratio of fluorescence intensity (A/B)” value is listed as 7.9, the Fluorescence maximum is listed as 916 nm, the “Fluorescence intensity (A)” value was 124942 and the “Fluorescence intensity (PBS)(B)” value came to 15816. In addition, in data set [4], the Fluorescence maximum stood at 901 nm, the “Fluorescence intensity (A)” value is 241880, the “Fluorescence intensity (PBS)(B)” value was found to be 14224 and the “Ratio of fluorescence intensity (A/B)” value came to 17.0.
On to `O=C(O)c1ccccc1C1=c2cc3c4c(c2Oc2c1cc1c5c2CCCN5CCC1)CCC[N+]=4CCC3` [Rhodamine 101], for which, at albumin (BSA), the “Ratio of fluorescence intensity (A/B)” value is reported as 1.1, the Fluorescence maximum is recorded as 600 nm, the “Fluorescence intensity (A)” value was found to be 171710 and the “Fluorescence intensity (PBS)(B)” value was 163500. For the same molecule, in data set [3], the “Ratio of fluorescence intensity (A/B)” value stood at 1.5, the Fluorescence maximum is recorded as 598 nm, the “Fluorescence intensity (A)” value is on record as 249130 and the “Fluorescence intensity (PBS)(B)” value is reported as 162110. In data set [4], the Fluorescence maximum is reported as 601 nm, the “Fluorescence intensity (A)” value came to 154280, the “Fluorescence intensity (PBS)(B)” value was found to be 163410 and the “Ratio of fluorescence intensity (A/B)” value came to 0.9.
On to `N#CC1=c2cc3c4c(c2Oc2c1cc1c5c2CCCN5CCC1)CCC[N+]=4CCC3` [Rhodamine 800], for which, at albumin (BSA), the “Ratio of fluorescence intensity (A/B)” value is 1.7, the Fluorescence maximum is recorded as 699 nm, the “Fluorescence intensity (A)” value was 139250 and the “Fluorescence intensity (PBS)(B)” value is listed as 82260. Also, in data set [3], the “Ratio of fluorescence intensity (A/B)” value came out at 1.9, the Fluorescence maximum is given as 702 nm, the “Fluorescence intensity (A)” value is reported as 152580 and the “Fluorescence intensity (PBS)(B)” value is on record as 80647. In addition, in data set [4], the Fluorescence maximum amounted to 699 nm, the “Fluorescence intensity (A)” value came to 138170, the “Fluorescence intensity (PBS)(B)” value was 82260 and the “Ratio of fluorescence intensity (A/B)” value worked out at 1.7.
